Measured values published in US20210085640A1, “ACYLATED CATECHIN POLYPHENOLS AND METHODS OF THEIR USE FOR THE TREATMENT OF CANCER” (Flagship Pioneering Innovations V, Inc., priority 2018, published 2021).

Experiments:
Format in all cases: cell-based
T24 bladder cancer cells = assay: Cancer cell survival (CellTiter-Glo), T24; settings: Homo sapiens
In short: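 T24 cells seeded at 4×10^3 cells/well overnight, then exposed 72 h at 37 C, 5% CO2 to nine concentrations in triplicate. Survival measured by CellTiter-Glo luminescence relative to untreated and medium controls; IC50 derived.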

[1] = tested on: Daudi lymphoma cancer cells; assay: Cancer cell survival (CellTiter-Glo), Daudi; settings: Homo sapiens, 72 h
In short: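 Daudi cells (4×10^3/well) were exposed for 72 h at 37 °C to nine concentrations of compound, added as 10× solutions spanning 1 μM–10 mM (fatty acids) or 100 nM–1 mM (others). CellTiter-Glo luminescence gave % survival versus untreated, medium-blank corrected; IC50 derived.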

MCF7 breast cancer cells = assay: Cancer cell survival (CellTiter-Glo), MCF7; settings: Homo sapiens, 72 h
In short: (§1)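 Cells were seeded at 4×10^3 cells/well and left overnight at 37 C, 5% CO2, then exposed in triplicate to nine compound concentrations for 72 h. Dosing solutions were made at 10× final (1 μM-10 mM fatty acids, 100 nM-1 mM other compounds). CellTiter-Glo luminescence, normalised to untreated and medium-only wells, gave IC50.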

[2] = tested on: HCT 116 colorectal cancer cells; assay: Cancer cell survival (CellTiter-Glo), HCT 116; settings: Homo sapiens, HCT 116 cells, 72 h
In short: as §1

A549 lung cancer cells = assay: Cancer cell survival (CellTiter-Glo), A549; settings: Homo sapiens, 72 h
In short: as §1

[3] = tested on: PC-3 prostate cancer cells; assay: Cancer cell survival (CellTiter-Glo), PC-3; settings: Homo sapiens, PC-3 cells, 72 h, read-out: Cell survival at given concentration
In short: as §1

A-431 skin cancer cells = assay: Cancer cell survival (CellTiter-Glo), A-431; settings: Homo sapiens, A-431 cells, 72 h
In short: as §1

AGS stomach cancer cells = assay: Cancer cell survival (CellTiter-Glo), AGS; settings: 72 h
In short: as §1

[4] = 101 nM, read-out: Cell survival at given concentration
[5] = 318 nM, read-out: Cell survival at given concentration
[6] = 1 μM, read-out: Cell survival at given concentration
[7] = 3 μM, read-out: Cell survival at given concentration
[8] = 10 μM, read-out: Cell survival at given concentration
[9] = 32 μM, read-out: Cell survival at given concentration
[10] = 100 μM, read-out: Cell survival at given concentration
[11] = 316 μM, read-out: Cell survival at given concentration
[12] = 1000 μM, read-out: Cell survival at given concentration

O=c1c(O)c(-c2cc(O)c(O)c(O)c2)oc2cc(O)cc(O)c12 [myricetin]
viability at 0.101 µM (T24 bladder cancer cells; T-24, 101 nM, 72 h, read-out: Cell survival at given concentration): 101%
viability at 0.318 µM (T24 bladder cancer cells; T-24, 318 nM, 72 h, read-out: Cell survival at given concentration): 98%
viability at 1 µM (T24 bladder cancer cells; T-24, 1 μM, 72 h, read-out: Cell survival at given concentration): 106%
viability at 3 µM (T24 bladder cancer cells; T-24, 3 μM, 72 h, read-out: Cell survival at given concentration): 102%
viability at 10 µM (T24 bladder cancer cells; T-24, 10 μM, 72 h, read-out: Cell survival at given concentration): 96%
viability at 32 µM (T24 bladder cancer cells; T-24, 32 μM, 72 h, read-out: Cell survival at given concentration): 9%
viability at 100 µM (T24 bladder cancer cells; T-24, 100 μM, 72 h, read-out: Cell survival at given concentration): 0%
viability at 316 µM (T24 bladder cancer cells; T-24, 316 μM, 72 h, read-out: Cell survival at given concentration): 0%
viability at 1000 µM (T24 bladder cancer cells; T-24, 1000 μM, 72 h, read-out: Cell survival at given concentration): 0%
IC50 (T24 bladder cancer cells; T-24, 72 h, Table 3.1, read-out: 1050): 19.1 µM
viability at 0.101 µM [1, 4]: 104%
viability at 0.318 µM [1, 5]: 103%
viability at 1 µM [1, 6]: 104%
viability at 3 µM [1, 7]: 104%
viability at 10 µM [1, 8]: 105%
viability at 32 µM [1, 9]: 25%
viability at 100 µM [1, 10]: 0%
viability at 316 µM [1, 11]: 0%
viability at 1000 µM [1, 12]: 0%
IC50 ([1]; Table 4.1): 28.1 µM
viability at 0.101 µM (MCF7 breast cancer cells; [4]): 105%
viability at 0.318 µM (MCF7 breast cancer cells; [5]): 95%
viability at 1 µM (MCF7 breast cancer cells; [6]): 104%
viability at 3 µM (MCF7 breast cancer cells; [7]): 100%
viability at 10 µM (MCF7 breast cancer cells; [8]): 99%
viability at 32 µM (MCF7 breast cancer cells; [9]): 103%
viability at 100 µM (MCF7 breast cancer cells; [10]): 94%
viability at 316 µM (MCF7 breast cancer cells; [11]): 99%
viability at 1000 µM (MCF7 breast cancer cells; [12]): 87%
IC50 (MCF7 breast cancer cells; Table 5.1): > 1000 µM
viability at 0.101 µM [2, 4]: 101%
viability at 0.318 µM [2, 5]: 104%
viability at 1 µM [2, 6]: 107%
viability at 3 µM [2, 7]: 105%
viability at 10 µM [2, 8]: 102%
viability at 32 µM [2, 9]: 31%
viability at 100 µM [2, 10]: 0%
viability at 316 µM [2, 11]: 0%
viability at 1000 µM [2, 12]: 0%
IC50 ([2]; Table 6.1): 26.5 µM
viability at 0.101 µM (A549 lung cancer cells; [4]): 100%
viability at 0.318 µM (A549 lung cancer cells; [5]): 100%
viability at 1 µM (A549 lung cancer cells; [6]): 99%
viability at 3 µM (A549 lung cancer cells; [7]): 104%
viability at 10 µM (A549 lung cancer cells; [8]): 101%
viability at 32 µM (A549 lung cancer cells; [9]): 99%
viability at 100 µM (A549 lung cancer cells; [10]): 99%
viability at 316 µM (A549 lung cancer cells; [11]): 98%
viability at 1000 µM (A549 lung cancer cells; [12]): 79%
IC50 (A549 lung cancer cells; Table 7.1): > 1000 µM
viability at 0.101 µM ([3]; 101 nM): 103%
viability at 0.318 µM ([3]; 318 nM): 99%
viability at 1 µM ([3]; 1 μM): 103%
viability at 3 µM ([3]; 3 μM): 100%
viability at 10 µM ([3]; 10 μM): 105%
viability at 32 µM ([3]; 32 μM): 101%
viability at 100 µM ([3]; 100 μM): 102%
viability at 316 µM ([3]; 316 μM): 101%
viability at 1000 µM ([3]; 1000 μM): 88%
viability at 0.101 µM (A-431 skin cancer cells; [4]): 102%
viability at 0.318 µM (A-431 skin cancer cells; [5]): 100%
viability at 1 µM (A-431 skin cancer cells; [6]): 102%
viability at 3 µM (A-431 skin cancer cells; [7]): 102%
viability at 10 µM (A-431 skin cancer cells; [8]): 100%
viability at 32 µM (A-431 skin cancer cells; [9]): 96%
viability at 100 µM (A-431 skin cancer cells; [10]): 87%
viability at 316 µM (A-431 skin cancer cells; [11]): 87%
viability at 1000 µM (A-431 skin cancer cells; [12]): 78%
IC50 (A-431 skin cancer cells; Table 9.1): > 1000 µM
viability at 0.101 µM (AGS stomach cancer cells; [4]): 107%
viability at 0.318 µM (AGS stomach cancer cells; [5]): 103%
viability at 1 µM (AGS stomach cancer cells; 1 μM, Table 10.1, read-out: Cell survival at given concentration): 110%
viability at 3 µM (AGS stomach cancer cells; 3 μM, Table 10.1, read-out: Cell survival at given concentration): 103%
viability at 10 µM (AGS stomach cancer cells; 10 μM, Table 10.1, read-out: Cell survival at given concentration): 109%
viability at 32 µM (AGS stomach cancer cells; 32 μM, Table 10.1, read-out: Cell survival at given concentration): 111%
viability at 100 µM (AGS stomach cancer cells; 100 μM, Table 10.1, read-out: Cell survival at given concentration): 108%
viability at 316 µM (AGS stomach cancer cells; [11]): 107%
viability at 1000 µM (AGS stomach cancer cells; [12]): 81%
